Patent US20260028365A1 (BIOGEN MA INC., priority 2022, published 2026)
Like-named read-outs stand apart in the source and are kept apart here.

Legend:
[1] = target: JH2 domain of human Tyk2 (Homo sapiens (Human), UniProt P29597); assay: JH2 Biochemical Assay (TR-FRET probe displacement); assay type: binding
[2] = target: Tyk2 (Homo sapiens (Human), UniProt P29597); assay: pSTAT4 Cell Assay (MSD, NK92 cells); assay type: cell-based
[3] = JH2 domain of human Tyk2, TR-FRET probe displacement
[4] = TR-FRET probe displacement, JH2 domain of human Tyk2
[5] = TR-FRET probe displacement, JH2 domain

Tyk2, sequence (P29597 whole entry, the tested form may be a part): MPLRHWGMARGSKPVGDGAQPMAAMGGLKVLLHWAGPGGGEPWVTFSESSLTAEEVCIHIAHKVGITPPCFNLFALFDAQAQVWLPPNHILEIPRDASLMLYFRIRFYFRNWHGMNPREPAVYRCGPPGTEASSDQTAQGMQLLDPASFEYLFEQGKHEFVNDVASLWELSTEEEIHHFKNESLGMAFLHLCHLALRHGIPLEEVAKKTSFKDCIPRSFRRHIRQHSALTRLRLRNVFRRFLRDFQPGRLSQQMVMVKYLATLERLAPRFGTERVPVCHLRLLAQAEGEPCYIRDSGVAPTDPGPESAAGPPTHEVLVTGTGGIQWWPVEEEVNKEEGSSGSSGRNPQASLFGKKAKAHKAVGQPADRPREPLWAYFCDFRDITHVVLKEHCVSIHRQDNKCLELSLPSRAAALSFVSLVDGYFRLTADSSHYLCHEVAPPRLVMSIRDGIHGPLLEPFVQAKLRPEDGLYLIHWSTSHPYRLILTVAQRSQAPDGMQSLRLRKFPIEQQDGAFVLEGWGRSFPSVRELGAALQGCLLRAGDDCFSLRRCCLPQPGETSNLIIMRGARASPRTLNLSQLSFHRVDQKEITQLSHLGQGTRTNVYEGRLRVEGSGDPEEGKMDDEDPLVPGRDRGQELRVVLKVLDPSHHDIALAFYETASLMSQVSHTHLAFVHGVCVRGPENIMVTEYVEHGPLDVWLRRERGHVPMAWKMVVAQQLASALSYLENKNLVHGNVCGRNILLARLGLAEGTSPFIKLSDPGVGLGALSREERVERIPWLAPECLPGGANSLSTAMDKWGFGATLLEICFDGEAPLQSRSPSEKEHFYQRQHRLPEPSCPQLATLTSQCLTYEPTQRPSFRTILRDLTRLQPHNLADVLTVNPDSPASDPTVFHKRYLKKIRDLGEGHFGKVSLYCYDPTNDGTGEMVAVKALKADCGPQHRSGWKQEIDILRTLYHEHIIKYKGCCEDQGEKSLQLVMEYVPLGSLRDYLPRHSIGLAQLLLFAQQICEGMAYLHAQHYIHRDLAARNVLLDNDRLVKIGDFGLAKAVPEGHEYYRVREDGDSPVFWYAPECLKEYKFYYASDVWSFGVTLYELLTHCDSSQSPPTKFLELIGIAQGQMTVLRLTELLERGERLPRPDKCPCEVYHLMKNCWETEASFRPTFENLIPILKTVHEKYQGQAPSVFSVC
JH2 domain of human Tyk2, sequence (P29597 575-876): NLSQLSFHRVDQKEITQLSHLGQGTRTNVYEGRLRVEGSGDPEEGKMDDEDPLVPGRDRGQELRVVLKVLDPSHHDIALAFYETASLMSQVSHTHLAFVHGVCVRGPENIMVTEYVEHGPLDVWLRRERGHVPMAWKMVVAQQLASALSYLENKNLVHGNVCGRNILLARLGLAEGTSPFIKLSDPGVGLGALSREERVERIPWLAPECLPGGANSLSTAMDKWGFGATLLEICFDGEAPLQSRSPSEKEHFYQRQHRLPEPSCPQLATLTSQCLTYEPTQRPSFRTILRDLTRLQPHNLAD

Compound | IC50 [1, 3] | IC50 ([2]; MSD) | IC50 [1, 4] | IC50 [1, 5] | IC50 [2]
CC(=O)Nc1cc(Nc2cc(C)nc(C(C)(F)F)n2)c(OCc2ncccc2C)cn1 [Example 471, N-(4-((2-(1,1-difluoroethyl)-6-methylpyrimidin-4-yl)amino)-5-((3-methylpyridin-2-yl)methoxy)pyridin-2-yl)acetamide] | 10 to 100 nM | 100 to 1000 nM | – | – | –
CC(=O)Nc1cc(Nc2cc(OC3CC3)nc(C(C)(F)F)n2)c(OCc2ccc(F)c(F)c2)cn1 [Example 349, N-(4-((6-cyclopropoxy-2-(1,1-difluoroethyl)pyrimidin-4-yl)amino)-5-((3,4-difluorobenzyl)oxy)pyridin-2-yl)acetamide] | – | ≤ 10 nM | ≤ 10 nM | – | –
CC(=O)Nc1cc(Nc2cc(C)nc(C(C)(F)F)n2)c(-c2cccc(CN3CCOCC3)n2)cn1 [Example 650, N-(4′-((2-(1,1-difluoroethyl)-6-methylpyrimidin-4-yl)amino)-6-(morpholinomethyl)-[2,3′-bipyridin]-6′-yl)acetamide] | ≤ 10 nM | ≤ 10 nM | – | – | –
COCn1ncc(-c2cnc(NC(C)=O)cc2Nc2ccnc(C(C)(F)F)n2)n1 [Example 711, N-(4-((2-(1,1-difluoroethyl)pyrimidin-4-yl)amino)-5-(2-(methoxymethyl)-2H-1,2,3-triazol-4-yl)pyridin-2-yl)acetamide] | ≤ 10 nM | 10 to 100 nM | – | – | –
COCCOc1cnc(NC(C)=O)cc1Nc1nc(C)cc(C(C)(C)F)n1 [Example 441, N-(4-((4-(2-fluoropropan-2-yl)-6-methylpyrimidin-2-yl)amino)-5-(2-methoxyethoxy)pyridin-2-yl)acetamide] | ≤ 10 nM | 100 to 1000 nM | – | – | –
CC(=O)Nc1cc(Nc2cc(C)nc(C(C)(F)F)n2)c(OCc2cccnc2)cn1 [Example 355, N-(4-((2-(1,1-difluoroethyl)-6-methylpyrimidin-4-yl)amino)-5-(pyridin-3-ylmethoxy)pyridin-2-yl)acetamide] | – | 10 to 100 nM | ≤ 10 nM | – | –
CC(=O)Nc1cc(Nc2cc(C)nc(C(C)(F)F)n2)c(OCCC2CCCN2C)cn1 (stereo not shown) [Example 501, N-(4-((2-(1,1-difluoroethyl)-6-methylpyrimidin-4-yl)amino)-5-(2-(1-methylpyrrolidin-2-yl)ethoxy)pyridin-2-yl)acetamide] | ≤ 10 nM | 100 to 1000 nM | – | – | –
CC(=O)Nc1cc(Nc2cc(C)nc(C(C)(F)F)n2)c(-c2nc(CN(C)C)cs2)cn1 [Example 784, N-(4-((2-(1,1-difluoroethyl)-6-methylpyrimidin-4-yl)amino)-5-(4-((dimethylamino)methyl)thiazol-2-yl)pyridin-2-yl)acetamide] | – | – | – | ≤ 10 nM | ≤ 10 nM
COCCn1nccc1-c1cnc(NC(C)=O)cc1Nc1cc(C)nc(C(C)(F)F)n1 [Example 258, N-(4-((2-(1,1-difluoroethyl)-6-methylpyrimidin-4-yl)amino)-5-(1-(2-methoxyethyl)-1H-pyrazol-5-yl)pyridin-2-yl)acetamide] | – | 100 to 1000 nM | 100 to 1000 nM | – | –
CC(=O)Nc1cc(Nc2cc(C)nc(C(C)(F)F)n2)c(-c2ccn(CC(C)(C)O)n2)cn1 [Example 228, N-(4-((2-(1,1-difluoroethyl)-6-methylpyrimidin-4-yl)amino)-5-(1-(2-hydroxy-2-methylpropyl)-1H-pyrazol-3-yl)pyridin-2-yl)acetamide] | – | ≤ 10 nM | ≤ 10 nM | – | –
COc1cc(-c2cnc(NC(C)=O)cc2Nc2ccnc(C(C)(F)F)c2)ncn1 [Example 217, N-(4-((2-(1,1-difluoroethyl)pyridin-4-yl)amino)-5-(6-methoxypyrimidin-4-yl)pyridin-2-yl)acetamide] | – | ≥ 1000 nM | 10 to 100 nM | – | –
COc1cnc(Oc2cnc(NC(C)=O)cc2Nc2cc(C)nc(C(C)(F)F)n2)cn1 [Example 356, N-(4-((2-(1,1-difluoroethyl)-6-methylpyrimidin-4-yl)amino)-5-((5-methoxypyrazin-2-yl)oxy)pyridin-2-yl)acetamide] | – | ≥ 1000 nM | ≥ 1000 nM | – | –
CCOc1cnc(NC(C)=O)cc1Nc1cc(-c2cnn(CC(C)C)c2)nc(C(C)(F)F)n1 [Example 371, N-(4-((2-(1,1-difluoroethyl)-6-(1-isobutyl-1H-pyrazol-4-yl)pyrimidin-4-yl)amino)-5-ethoxypyridin-2-yl)acetamide] | ≤ 10 nM | ≤ 10 nM | – | – | –
CC(=O)Nc1cc(Nc2cc(C)nc(C(C)(F)F)n2)c(-c2ccn3ncnc3n2)cn1 [Example 536, N-(5-([1,2,4]triazolo[1,5-a]pyrimidin-5-yl)-4-((2-(1,1-difluoroethyl)-6-methylpyrimidin-4-yl)amino)pyridin-2-yl)acetamide] | ≤ 10 nM | ≤ 10 nM | – | – | –
CCc1cc(Nc2cc(NC(C)=O)ncc2-c2cnc(C(C)(C)O)cn2)nc(C(C)(F)F)n1 [Example 855, N-(4-((2-(1,1-difluoroethyl)-6-ethylpyrimidin-4-yl)amino)-5-(5-(2-hydroxypropan-2-yl)pyrazin-2-yl)pyridin-2-yl)acetamide] | – | – | – | ≤ 10 nM | ≤ 10 nM
COCCOc1cnc(NC(C)=O)cc1Nc1cc(C)nc(C(C)CF)n1 (stereo not shown) [Example 82, N-(4-((2-(1-fluoropropan-2-yl)-6-methylpyrimidin-4-yl)amino)-5-(2-methoxyethoxy)pyridin-2-yl)acetamide] | – | 10 to 100 nM | ≤ 10 nM | – | –
CC(=O)Nc1cc(Nc2cc(C)nc(C(C)(F)F)n2)c(OCC2(C#N)CC2)cn1 [Example 84, N-(5-((1-cyanocyclopropyl)methoxy)-4-((2-(1,1-difluoroethyl)-6-methylpyrimidin-4-yl)amino)pyridin-2-yl)acetamide] | – | 10 to 100 nM | ≤ 10 nM | – | –
CC(=O)Nc1cc(Nc2ccnc(C(C)(F)F)n2)c(-c2ccc(CN3C[C@H]4C[C@@H](C3)O4)cn2)cn1 [Example 702, N-(5-(((1R,5S)-6-oxa-3-azabicyclo[3.1.1]heptan-3-yl)methyl)-4′-((2-(1,1-difluoroethyl)pyrimidin-4-yl)amino)-[2,3′-bipyridin]-6′-yl)acetamide] | ≤ 10 nM | ≤ 10 nM | – | – | –
CC(=O)Nc1cc(Nc2cc(C)nc(C(C)(F)F)n2)c(OCc2cnn(C)c2)cn1 [Example 508, N-(4-((2-(1,1-difluoroethyl)-6-methylpyrimidin-4-yl)amino)-5-((1-methyl-1H-pyrazol-4-yl)methoxy)pyridin-2-yl)acetamide] | ≤ 10 nM | 10 to 100 nM | – | – | –
CCc1cc(Nc2cc(NC(C)=O)ncc2OCCF)nc(C(C)(F)F)n1 [Example 407, N-(4-((2-(1,1-difluoroethyl)-6-ethylpyrimidin-4-yl)amino)-5-(2-fluoroethoxy)pyridin-2-yl)acetamide] | ≤ 10 nM | ≤ 10 nM | – | – | –
COc1ccc(-c2cnc(NC(C)=O)cc2Nc2cc(C)nc(C(C)(F)F)n2)nc1 [Example 599, N-(4′-((2-(1,1-difluoroethyl)-6-methylpyrimidin-4-yl)amino)-5-methoxy-[2,3′-bipyridin]-6′-yl)acetamide] | ≤ 10 nM | ≤ 10 nM | – | – | –
COc1cnc(NC(C)=O)cc1Nc1cc(-c2cc(OC)c3nc(C)cn3c2)nc(C(C)(F)F)n1 [Example 401, N-(4-((2-(1,1-difluoroethyl)-6-(8-methoxy-2-methylimidazo[1,2-a]pyridin-6-yl)pyrimidin-4-yl)amino)-5-methoxypyridin-2-yl)acetamide] | ≤ 10 nM | 100 to 1000 nM | – | – | –
CC(=O)Nc1cc(Nc2cc(C)nc(C(C)(F)F)n2)c(-c2cccc([C@@H]3CN(C)CCO3)n2)cn1 (single isomer, unassigned) [Example 641, (S)-N-(4′-((2-(1,1-difluoroethyl)-6-methylpyrimidin-4-yl)amino)-6-(4-methylmorpholin-2-yl)-[2,3′-bipyridin]-6′-yl)acetamide or (R)-N-(4′-((2-(1,1-difluoroethyl)-6-methylpyrimidin-4-yl)amino)-6-(4-methylmorpholin-2-yl)-[2,3′-bipyridin]-6′-yl)acetamide] | ≤ 10 nM | ≤ 10 nM | – | – | –
CC(=O)Nc1cc(Nc2cc(C)nc(C(C)(F)F)n2)c(OCC(F)(F)F)cn1 [Example 23, N-(4-((2-(1,1-difluoroethyl)-6-methylpyrimidin-4-yl)amino)-5-(2,2,2-trifluoroethoxy)pyridin-2-yl)acetamide] | – | 100 to 1000 nM | ≤ 10 nM | – | –
COCCn1ccc(-c2cnc(NC(C)=O)cc2Nc2cc(C)nc(C(C)(F)F)n2)n1 [Example 257, N-(4-((2-(1,1-difluoroethyl)-6-methylpyrimidin-4-yl)amino)-5-(1-(2-methoxyethyl)-1H-pyrazol-3-yl)pyridin-2-yl)acetamide] | – | ≤ 10 nM | ≤ 10 nM | – | –
CC(=O)Nc1cc(Nc2cc(C(C)C)nc(C(C)(F)F)n2)c(-c2ccc3c(n2)OCC(C)(C)O3)cn1 [Example 822, N-(4-((2-(1,1-difluoroethyl)-6-isopropylpyrimidin-4-yl)amino)-5-(2,2-dimethyl-2,3-dihydro-[1,4]dioxino[2,3-b]pyridin-6-yl)pyridin-2-yl)acetamide] | – | – | – | ≤ 10 nM | ≤ 10 nM
CC(=O)Nc1cc(Nc2cc(C)nc(C34CCC(C3)OC4)n2)c(-c2ccn(C)n2)cn1 (stereo not shown) [Example 557, N-(4-((2-(2-oxabicyclo[2.2.1]heptan-4-yl)-6-methylpyrimidin-4-yl)amino)-5-(1-methyl-1H-pyrazol-3-yl)pyridin-2-yl)acetamide] | ≤ 10 nM | 10 to 100 nM | – | – | –
CC(=O)Nc1cc(Nc2cc(C)nc(C(C)(F)F)n2)c(OCc2noc(C)n2)cn1 [Example 498, N-(4-((2-(1,1-difluoroethyl)-6-methylpyrimidin-4-yl)amino)-5-((5-methyl-1,2,4-oxadiazol-3-yl)methoxy)pyridin-2-yl)acetamide] | ≤ 10 nM | 100 to 1000 nM | – | – | –
CC(=O)Nc1cc(Nc2cc(C)nc(C(C)(F)F)n2)c(-c2ccnc(C(C)(F)F)n2)cn1 [Example 837, N-(4-((2-(1,1-difluoroethyl)-6-methylpyrimidin-4-yl)amino)-5-(2-(1,1-difluoroethyl)pyrimidin-4-yl)pyridin-2-yl)acetamide] | – | – | – | ≤ 10 nM | ≤ 10 nM
